Where “and” joins values, the source holds several entries; their conditions need not be identical. Equal entries are not always repeated.
Test system: 556581-035-R-J1-PDC complex spheroid growth
Assay: Anticancer human tumor 556581-035-R-J1-PDC patient-derived ovarian carcinoma cell line growth inhibition [AhR]
Details: for viability, T/C: stronger effect = lower value; for IC50: curve of compound
Excerpt: Multicellular complex tumor spheroid response to aryl hydrocarbon receptor antagonists in combination with a variety of drugs and investigational agents in selected tumor cell lines
The current study was undertaken to assess response to aryl hydrocarbon receptor antagonists in combination with standard-of-care drugs and investigational agents in solid tumor complex spheroid models. Complex spheroids include a stromal component modeled by human endothelial cells (HUVEC) and fibroblasts modeled by human mesenchymal stem cells (MSCs). The concentration ranges selected for each drug and investigational agent were based upon clinically achievable concentrations if the clinical Cmax of the agent was known.
Compounds. The drugs and investigational agents: BAY 2416964 (NSC825713), GNF351 (NSC835774), CH-223191 (NSC835775), CPI-455 (NSC825282), aza-TdCyd (NSC777586), decitabine (NSC127716), belinostat (NSC758774), entinostat (NSC756642), pevonedistat (NSC761192), tazemetostat (NSC777109), talazoparib (NSC765396), olaparib (NSC753686), selinexor (NSC780203), nedisertib (M3814, NSC802822), bortezomib (NSC756655), venetoclax (NSC766270), doxorubicin (NSC123127), elimusertib (BAY189344, NSC800525), ceralasertib (AZD6738, NSC777638), TAK-243 (NSC785004), alisertib (NSC759677), etoposide (NSC141540), topotecan (NSC609699), eribulin (NSC707389), gemcitabine (NSC613327), carboplatin (NSC241240), cisplatin (NSC119875), and SN-38 (NSC673596) were obtained from the National Cancer Institute (NCI) Developmental Therapeutics Program Chemical Repository (32). The FDA-approved anticancer drug set is available from the Developmental Therapeutics Program at https://dtp.cancer.gov/organization/dscb/obtaining/available plates.htm. […] The stock solutions were prepared in dimethyl sulfoxide (DMSO, Sigma-Aldrich, St. Louis, MO, cat. D2650), except for the platinum compounds which were prepared in saline (Quality Biological, Gaithersburg, MD, cat. 114-055-101), at 800-fold the tested concentration and stored at -70 degrees C prior to their use. All drugs and investigational agents were tested over a range starting from a high concentration at or near the clinical Cmax and decreasing in half-log increments. If the clinical Cmax for an agent had not been determined, the highest concentration tested was 10 microM (Table 1).
Cell Culture. All cells were maintained in an incubator at 37 degrees C and 5% CO2 with 95% humidity. The PDC lines were cultured according to standard operating procedures established by the NCI PDMR (https://pdmr.cancer.gov). Briefly, all PDCs were thawed and cultured in Matrigel-coated flasks prepared with a working solution of 1X Ham's F-12 nutrient mix, without supplementation (Invitrogen, Waltham, MA, cat. 11765054), 100 U/mL penicillin-streptomycin (Invitrogen, cat. 15140122), and 2.5% Matrigel (Corning Inc., Corning, NY, cat. 354248) for the first three passages. All PDCs were cultured in complete DMEM/F-12 media containing advanced DMEM/F-12 (Invitrogen, cat. 12634028), 4.9% defined fetal bovine serum, heat inactivated (HyClone Laboratories Inc., Logan, UT, cat. SH30070.03HI), 389 ng/mL hydrocortisone (Sigma-Aldrich, cat. H4001), 9.7 ng/mL human EGF recombinant protein (Invitrogen, cat. PHG0313), 23.4 microg/mL adenine (Sigma-Aldrich, cat. A2786), 97.3 U/mL penicillin-streptomycin (Invitrogen, cat. 15140122), 1.9 mM L-glutamine (Invitrogen, cat. 25030081), and 9.7 microM Y-27632 dihydrochloride (Tocris Bioscience, Bristol, United Kingdom, cat. 1254). The PDCs were cultured in complete DMEM/F12 media without 10 microM Y-27632 dihydrochloride for at least two passages prior to the screen. The established cell lines NCI-H1341 and […] were cultured in DMEM/F-12, HEPES (Invitrogen, cat. 11330032), 5% defined fetal bovine serum (HyClone Laboratories Inc., cat. SH30070.03), ITS premix universal culture supplement [insulin (5 microg/mL), transferrin (5 microg/mL), and selenious acid (5 ng/mL)] […]
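For viability, T/C in this document: compound exposure lasted 7 days; 100% = DMSO vehicle control growth.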

IC50 | Structure (SMILES) | viability, T/C (compound 0.000949 µM) | viability, T/C (compound 0.003 µM) | viability, T/C (compound 0.00949 µM) | viability, T/C (compound 0.03 µM) | viability, T/C (compound 0.0949 µM) | viability, T/C (compound 0.3 µM) | viability, T/C (compound 0.00316 µM) | viability, T/C (compound 0.01 µM) | viability, T/C (compound 0.0316 µM) | viability, T/C (compound 0.1 µM) | viability, T/C (compound 0.316 µM) | viability, T/C (compound 1 µM) | viability, T/C (compound 0.949 µM) | viability, T/C (compound 3 µM) | viability, T/C (compound 0.000316 µM) | viability, T/C (compound 0.001 µM) | viability, T/C (compound 3.16 µM) | viability, T/C (compound 10 µM)
5.87 nM and 5.61 nM and 4.98 nM | CC(C)CC(NC(=O)C(Cc1ccccc1)NC(=O)c1cnccn1)B(O)O (stereo not drawn) | 105% and 95.7% and 87.9% | 101% and 97.8% and 87.1% | 13.2% and 10.6% and 2.65% | 1.02% and 0.36% and 1.1% | 0.22% and 0.29% and 0.24% | 0.28% and 0.29% and 0.34% |  |  |  |  |  |  |  |  |  |  |  | 
670 nM and 897 nM and 827 nM | CC1COCCN1c1cc(-c2ccnn2C)c2ccnc(-c3ccn[nH]3)c2n1 (stereo not drawn) |  |  |  |  |  |  | 97.2% and 110% and 109% | 101% and 105% and 102% | 105% and 95.4% and 98.4% | 78.3% and 80.3% and 80.1% | 58.9% (2×) and 65.4% | 45.2% and 48.2% and 48.4% |  |  |  |  |  | 
> 3000 nM | CCN(c1cc(-c2ccc(CN3CCOCC3)cc2)cc(C(=O)NCc2c(C)cc(C)[nH]c2=O)c1C)C1CCOCC1 |  |  | 98.6% and 100% and 96.3% | 110% and 102% and 118% | 97.2% and 104% and 89.5% | 96.6% and 91% and 102% |  |  |  |  |  |  | 96.9% and 87.3% and 106% | 102% and 91.7% and 108% |  |  |  | 
> 100 nM and 86.9 nM | CC[C@@]1(O)C(=O)OCc2c1cc1n(c2=O)Cc2cc3c(CN(C)C)c(O)ccc3nc2-1 |  |  |  |  |  |  | 91.3% and 91.8% and 95.9% | 87.9% and 84.7% and 81.2% | 77.2% and 66.1% and 69.9% | 54.1% and 51.6% and 47% |  |  |  |  | 101% and 94.3% and 103% | 103% and 90.5% and 99.5% |  | 
13.6 nM and 21.3 nM and 13.7 nM | CCc1c2c(nc3ccc(O)cc13)-c1cc3c(c(=O)n1C2)COC(=O)[C@]3(O)CC | 89.1% and 96% and 90.5% | 75% and 95% and 73.6% | 54.5% and 61% and 53.9% | 39.9% and 46% and 40.5% | 17.3% and 25.3% and 22.7% | 10.3% and 15.8% and 10.7% |  |  |  |  |  |  |  |  |  |  |  | 
7210 nM and 8060 nM and 9560 nM | COc1cc(C2c3cc4c(cc3C(OC3OC5COC(C)OC5C(O)C3O)C3COC(=O)C23)OCO4)cc(OC)c1O (stereo not drawn) |  |  |  |  |  |  |  |  | 104% and 107% and 99.2% | 103% (2×) and 100% | 84.9% and 82.3% and 74.7% | 78.2% and 84.1% and 76.3% |  |  |  |  | 62.1% and 66.4% and 67.5% | 45.1% and 44.2% and 47.1%
388 nM and 386 nM and 366 nM | COc1cccc2c1C(=O)c1c(O)c3c(c(O)c1C2=O)CC(O)(C(=O)CO)CC3OC1CC(N)C(O)C(C)O1 (stereo not drawn) |  |  |  |  |  |  |  |  | 90.7% and 86.7% and 84.5% | 89% and 78.2% and 76.5% | 58.8% and 57.2% and 55% | 9.14% and 19.1% and 19.5% |  |  |  |  | 1.93% and 3.75% and 4.65% | 3.8% and 2.01% and 3.67%
> 100 nM | Cn1ncnc1C1c2n[nH]c(=O)c3cc(F)cc(c23)NC1c1ccc(F)cc1 (stereo not drawn) |  |  |  |  |  |  | 101% and 93.3% and 98.7% | 92.7% and 93.9% and 101% | 100% (2×) and 103% | 94.4% and 98.2% and 94.7% |  |  |  |  | 108% and 106% and 107% | 103% and 101% and 102% |  | 
1860 nM and 2090 nM and 887 nM | Nc1ccccc1NC(=O)c1ccc(CNC(=O)OCc2cccnc2)cc1 |  |  |  |  |  |  |  |  | 107% and 100% and 98.1% | 90.8% and 105% and 99% | 90.4% and 74.8% and 71.6% | 63.6% and 66.1% and 48.9% |  |  |  |  | 37.2% and 42.8% and 26.6% | 19.1% and 17% and 18.4%
< 31.6 nM | Nc1ccn(C2OC(CO)C(O)C2(F)F)c(=O)n1 (stereo not drawn) |  |  |  |  |  |  |  |  | 32.3% and 35% and 33.6% | 38.3% and 35.4% and 37.6% | 32.6% and 36.3% and 46.9% | 37.1% and 36.9% and 40.4% |  |  |  |  | 39.2% and 35.1% and 36.5% | 31.2% and 31.4% and 32.4%
> 1000 nM | Nc1ncn(C2CC(O)C(CO)O2)c(=O)n1 (stereo not drawn) |  |  |  |  |  |  | 90.6% and 101% and 102% | 101% (2×) and 105% | 91.6% and 90.4% and 90.8% | 95.1% and 95.6% and 86.2% | 95.8% and 81.7% and 82.5% | 83.9% and 75.5% and 76.9% |  |  |  |  |  | 
> 300 nM | Nc1ncn(C2CC(O)C(CO)S2)c(=O)n1 (stereo not drawn) | 92% and 102% and 111% | 109% and 115% and 113% | 102% and 106% and 113% | 88% and 106% and 100% | 82.2% and 87.7% and 100% | 67.3% and 67.2% and 64.9% |  |  |  |  |  |  |  |  |  |  |  | 
2220 nM and > 3000 nM | O=C(C=Cn1cnc(-c2cc(C(F)(F)F)cc(C(F)(F)F)c2)n1)NNc1cnccn1 |  |  | 91.3% (2×) and 109% | 104% and 93.8% and 98.7% | 89.4% and 85% and 83.4% | 80.2% and 78.5% and 72.8% |  |  |  |  |  |  | 65.8% and 77.7% and 69.5% | 44.5% and 54% and 67.8% |  |  |  | 
> 10000 nM | O=C(c1cc(Cc2n[nH]c(=O)c3ccccc23)ccc1F)N1CCN(C(=O)C2CC2)CC1 |  |  |  |  |  |  |  |  | 100% and 98.6% and 97.2% | 103% and 96.9% and 88.5% | 95.3% and 93.3% and 86.6% | 102% and 93.8% and 87.4% |  |  |  |  | 94.5% and 91.3% and 93.1% | 74.8% and 82.6% and 69.8%

Source: PubChem BioAssay AID1918999 (Molecular Pharmacology Branch, DTP, NCI, 2023)
